Four molecules from patent US20110160081A1, “FUNCTIONAL COMPLEMENTATION ASSAY FOR DEFINED GPCR OLIGOMERS” (priority 2008, published 2011) can be followed below.

Assay [1] has as its system endogenous purinergic receptors. The assay can be described thus: Aequorin assay, endogenous receptors in AEQ cells. In kind it is cell-based. The text has this: To enable isolation of the signaling of the D2R from endogenous G proteins, and to control each of the components of the signaling complex, Flp-In 1-Rex-293 cells were engineered to stably express aequorin (AEQ cells) (see Example 1). Aequorin produces luminescence in a calcium-dependent manner in the presence of the substrate coelenterazine (23, 24), and it has been used to create a sensitive luminescence readout for GPCR-mediated PLC activation (25). In these cells, endogenous muscarinic or purinergic receptors signaled robustly via endogenous Gq, resulting in strong agonist-induced (ACH and ATP, respectively) luminescence signals (FIG. 7A).

In assay [2] the test system is WT D2R coexpressed with D2/D4-Gqi5. Kind of assay: Aequorin functional complementation assay, WT D2R as protomer A with D2/D4-Gqi5 as protomer B. In kind it is cell-based, human. The following applies: L745,870 1 μM; agonist quinpirole; n=9. The text has this:
(§1) The signals were further normalized according to Flag tagged D2R expression level. To normalize for different levels of surface expression levels of the Flag-D2R-Gqi5 mutant constructs, the Emax at each expression level (FIG. 12F) was plotted as a function of different levels of expression of Flag-tagged wt D2R-Gqi5, the expression of which was controlled by varying the time after tetracycline induction (FIG. 12A). The level of Myc-D2R remained essentially unchanged (FIG. 12B). The standard curve was fit to a 1 site rectangular hyperbola using nonlinear regression in GraphPad Prism 4.0 (GraphPad Software Inc., La Jolla, Calif.) (FIG. 12G). The luminescence response of the various Flag-D2R-Gqi5 constructs was normalized using this standard curve to account for the effects of different expression levels, with activation of 1 defined as that observed after 12 hours of tetracycline induction of WT D2R-Gqi5. The Flag detection was approximately 5-fold more sensitive than that of Myc; thus, the excess of Myc-tagged protomer A, which cannot signal on its own, ensures that normalization based on surface expression of the Flag-tagged Gqi5-fused protomer B accurately reflects the productive signaling entities, each of which must contain a protomer A and a protomer B.

The target in assay [3] is T1, SSTR5 coexpressed with D114A-Gqi5 (Homo sapiens, UniProt P35346).
T1 construct: signal peptide (N); expressed in transfected cells; host or cells: AEQ cells (Flp-in T-rex 293 with aequorin)
In kind it is cell-based.

The target of assay [4] is T2, SSTR5 coexpressed with D2R-Gqi5 (Homo sapiens, UniProt P14416+P35346).
T2 construct: signal peptide (N); expressed in transfected cells; host or cells: AEQ cells (Flp-in T-rex 293 with aequorin)
In kind it is cell-based.

The target of assay [5] is T3, D2R coexpressed with free Gqi5 (Homo sapiens, UniProt P14416).
T3 construct: signal peptide (N); expressed in transfected cells; host or cells: Flp-in T-rex 293 cells stably expressing aequorin
In kind it is cell-based. The following applies: pertussis toxin 100 ng/ml 16-24 hours.

The target in assay [6] is T4, D2R coexpressed with D2-Gqi5 (Homo sapiens, UniProt P14416).
T4 construct: signal peptide (N); expressed in transfected cells; host or cells: Flp-in T-rex 293 cells stably expressing aequorin
The assay can be described thus: Aequorin functional complementation assay, D2R coexpressed with D2R-Gqi5. The note with it: pertussis toxin 100 ng/ml 16-24 hours. In kind it is cell-based.
Excerpt: as §1, with “B. […]” for “B.”

T2 sequence (P35346 whole entry): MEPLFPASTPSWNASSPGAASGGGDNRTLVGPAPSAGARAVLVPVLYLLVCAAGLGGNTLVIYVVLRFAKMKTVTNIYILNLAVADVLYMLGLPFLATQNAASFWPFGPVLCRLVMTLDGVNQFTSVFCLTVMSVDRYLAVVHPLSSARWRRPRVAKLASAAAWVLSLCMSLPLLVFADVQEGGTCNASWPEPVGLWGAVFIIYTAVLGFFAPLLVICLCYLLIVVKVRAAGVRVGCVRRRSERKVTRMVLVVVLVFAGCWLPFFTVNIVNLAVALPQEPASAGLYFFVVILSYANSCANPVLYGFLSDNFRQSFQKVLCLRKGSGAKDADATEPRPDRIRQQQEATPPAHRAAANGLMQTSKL
T2 sequence (P14416 with tags, fused parts or gaps isoform P14416-2): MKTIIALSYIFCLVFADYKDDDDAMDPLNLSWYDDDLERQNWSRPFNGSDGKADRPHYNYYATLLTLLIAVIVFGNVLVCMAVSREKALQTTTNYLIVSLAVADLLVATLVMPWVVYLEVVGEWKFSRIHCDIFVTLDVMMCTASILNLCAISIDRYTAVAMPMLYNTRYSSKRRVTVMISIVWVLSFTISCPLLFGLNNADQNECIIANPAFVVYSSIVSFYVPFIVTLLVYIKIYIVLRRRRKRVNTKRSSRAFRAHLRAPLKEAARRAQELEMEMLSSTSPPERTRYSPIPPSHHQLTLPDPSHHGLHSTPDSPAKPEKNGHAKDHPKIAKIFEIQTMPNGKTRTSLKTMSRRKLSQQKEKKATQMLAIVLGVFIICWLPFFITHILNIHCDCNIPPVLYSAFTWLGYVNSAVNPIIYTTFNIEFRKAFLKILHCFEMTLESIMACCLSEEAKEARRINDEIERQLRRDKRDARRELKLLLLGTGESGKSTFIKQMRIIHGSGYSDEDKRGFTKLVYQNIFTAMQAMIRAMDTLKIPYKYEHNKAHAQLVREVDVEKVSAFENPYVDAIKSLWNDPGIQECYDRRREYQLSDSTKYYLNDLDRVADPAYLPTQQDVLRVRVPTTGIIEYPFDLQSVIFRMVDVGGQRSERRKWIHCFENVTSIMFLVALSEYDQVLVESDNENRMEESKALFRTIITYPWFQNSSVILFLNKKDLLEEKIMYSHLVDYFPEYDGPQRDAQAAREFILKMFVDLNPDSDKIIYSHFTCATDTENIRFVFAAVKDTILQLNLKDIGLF
T4 sequence (P14416 with tags, fused parts or gaps isoform P14416-2): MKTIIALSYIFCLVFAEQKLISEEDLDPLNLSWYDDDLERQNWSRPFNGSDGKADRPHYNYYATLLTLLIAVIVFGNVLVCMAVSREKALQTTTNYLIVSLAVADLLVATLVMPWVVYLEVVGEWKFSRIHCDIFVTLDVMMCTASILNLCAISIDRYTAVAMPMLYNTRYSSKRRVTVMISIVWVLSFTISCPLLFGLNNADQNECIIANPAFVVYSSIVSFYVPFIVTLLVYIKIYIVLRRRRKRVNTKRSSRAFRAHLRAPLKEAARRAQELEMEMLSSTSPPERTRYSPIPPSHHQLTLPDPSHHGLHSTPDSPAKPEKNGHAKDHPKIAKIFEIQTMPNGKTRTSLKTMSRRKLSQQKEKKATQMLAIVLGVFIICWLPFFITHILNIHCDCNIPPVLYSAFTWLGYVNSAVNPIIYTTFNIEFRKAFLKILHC
T1 sequence (P35346 whole entry, stated change not applied): as the sequence (P35346 whole entry) above
T1 sequence (P14416 with tags, fused parts or gaps isoform P14416-2 D114A partner): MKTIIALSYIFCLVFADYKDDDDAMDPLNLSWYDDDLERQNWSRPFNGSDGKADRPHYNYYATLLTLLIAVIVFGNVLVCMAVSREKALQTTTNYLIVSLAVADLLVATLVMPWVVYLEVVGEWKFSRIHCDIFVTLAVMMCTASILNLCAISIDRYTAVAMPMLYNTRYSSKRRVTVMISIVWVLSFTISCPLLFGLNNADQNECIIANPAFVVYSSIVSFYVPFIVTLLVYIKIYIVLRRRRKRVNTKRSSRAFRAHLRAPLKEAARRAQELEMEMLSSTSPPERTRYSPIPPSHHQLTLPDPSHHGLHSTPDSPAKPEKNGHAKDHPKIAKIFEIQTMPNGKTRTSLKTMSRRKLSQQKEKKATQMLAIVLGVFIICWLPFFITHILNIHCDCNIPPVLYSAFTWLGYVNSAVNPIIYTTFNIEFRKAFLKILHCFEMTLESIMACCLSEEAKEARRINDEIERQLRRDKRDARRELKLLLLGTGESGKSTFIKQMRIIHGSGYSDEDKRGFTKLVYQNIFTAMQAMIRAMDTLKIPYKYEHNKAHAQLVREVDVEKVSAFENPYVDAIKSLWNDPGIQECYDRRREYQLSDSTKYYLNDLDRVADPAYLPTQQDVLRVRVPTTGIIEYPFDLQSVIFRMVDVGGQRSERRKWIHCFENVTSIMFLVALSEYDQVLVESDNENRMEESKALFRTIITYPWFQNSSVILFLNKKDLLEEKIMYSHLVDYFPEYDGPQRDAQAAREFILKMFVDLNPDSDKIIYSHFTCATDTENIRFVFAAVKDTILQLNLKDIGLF
T3 sequence (P14416 with tags, fused parts or gaps isoform P14416-2): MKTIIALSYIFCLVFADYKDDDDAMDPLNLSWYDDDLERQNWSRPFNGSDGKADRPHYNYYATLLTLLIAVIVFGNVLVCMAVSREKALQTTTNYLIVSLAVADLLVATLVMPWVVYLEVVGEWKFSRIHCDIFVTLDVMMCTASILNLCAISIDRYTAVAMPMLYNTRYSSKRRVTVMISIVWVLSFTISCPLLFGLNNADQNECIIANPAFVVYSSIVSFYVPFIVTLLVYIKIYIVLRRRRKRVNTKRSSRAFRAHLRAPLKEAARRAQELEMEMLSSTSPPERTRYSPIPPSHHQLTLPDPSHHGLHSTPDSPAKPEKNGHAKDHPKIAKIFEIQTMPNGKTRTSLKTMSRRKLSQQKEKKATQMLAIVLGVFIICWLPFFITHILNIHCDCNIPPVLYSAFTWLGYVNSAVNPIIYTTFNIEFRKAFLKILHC

For `Nc1ncnc2c1ncn2[C@@H]1O[C@H](COP(=O)(O)OP(=O)(O)OP(=O)(O)O)[C@@H](O)[C@H]1O` [ATP], in assay [1], the “agonist-induced luminescence signal via endogenous Gq” value is recorded as “strong”.

Take `Cl.Cl.Cl.Clc1ccc(N2CCN(Cc3c[nH]c4ncccc34)CC2)cc1` [L745,870, 3-(4-[4-Chlorophenyl]piperazin-1-yl)-methyl-1H-pyrrolo[2,3-b]pyridine trihydrochloride]: in assay [2], the “maximal activation, % of that observed for D2R coexpressed with WT D2R-Gqi5” value is 156.7±7.3%.

As to `CCN1CCCC1CNC(=O)c1cc(S(N)(=O)=O)ccc1OC` (centres unmarked) [sulpiride], the “effect on SSTR5 activation (luminescence readout)” value is recorded as “without effect” in assay [3] and “enhanced” in assay [4] (coadministration of 1 μM with somatostatin). Besides, the “enhancement of potency of somatostatin by sulpiride relative to quinpirole” value in assay [4] (D2R inverse agonist sulpiride versus agonist quinpirole) is recorded as “about 6 fold”. In addition, the “shift in the SST curve” value in assay [4] (in presence of compound, data not shown) was “full shift”.

With pertussis toxin, the “effect of PTX on increase in luminescence” value in assay [5] is listed as “unaffected”. Besides, in assay [6], the “effect of pertussis toxin treatment on activation” value is recorded as “lack of effect”.
